Test system: lactic acid bacteria
Test: Lactic acid bacteria count of Taiwanese style sausage during storage
Conditions: second group, 25% sodium lactate; at 4 and 8 weeks storage at 15° C.
Description: The each group of sausages prepared from example 4 was packed in equal with vacuum package and stored at 15° C. for 8 weeks. Taking the amounts of sausages from the each group in 0, 1, 2, 3, 4 and 8 weeks were separately packed into sterile bags with sterile water and homogenized with a stomacher (Lab-Blender 400, England) for 30 second to have dilutions of the each group's sausages at different storage times for further microbiological analyzing.
The dilutions of the each group's sausage at different storage times were separately poured into a petri dish, added first layer of MRS agar into the each petri dish and then mixed completely. The second layer of MRS agar was poured on the first layer of MRS agar to produce an anaerobic condition then mixed and incubated at 37° C. for 48 hours in an anaerobic jar.

CC(O)C(=O)[O-].[Na+] (stereo not shown) [sodium lactate]
lactic acid bacteria count: 7.52 log CFU/g
